Usually EC50 stands for the midpoint of the concentration-response curve.

These results are taken from ChEMBL document CHEMBL1201862, “PubChem BioAssay data set” (2004).

Assay [1] in a line: inhibitors of Bluetongue virus cytopathic effect, confirmation, arbovirus, BSR cells (AID 1250).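 Note: protection from viral cytopathic effect measured as cell viability by ATP luminescence.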 The format is functional. Background: Protection from cytopathic effect is a common read-out in antiviral testing.
In assay [2] the target is T1, Dual specificity protein phosphatase 3 (Homo sapiens, UniProt P51452). Description: VHR1 phosphatase inhibitors, biochemical (AID 1878).
T1 sequence (P51452 whole entry): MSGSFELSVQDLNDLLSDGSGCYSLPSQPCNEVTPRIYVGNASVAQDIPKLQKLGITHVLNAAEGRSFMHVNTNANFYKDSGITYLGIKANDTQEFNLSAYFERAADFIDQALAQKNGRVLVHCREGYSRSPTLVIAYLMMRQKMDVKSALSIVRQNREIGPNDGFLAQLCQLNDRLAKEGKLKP
The target in assay [3] is Dual specificity protein phosphatase 6 (Rattus norvegicus, UniProt Q64346). As to the kind of experiment: MKP-3 phosphatase inhibitors, primary screen, biochemical, rat enzyme, in vitro (AID 425).
Sequence of Dual specificity protein phosphatase 6 (Q64346 whole entry): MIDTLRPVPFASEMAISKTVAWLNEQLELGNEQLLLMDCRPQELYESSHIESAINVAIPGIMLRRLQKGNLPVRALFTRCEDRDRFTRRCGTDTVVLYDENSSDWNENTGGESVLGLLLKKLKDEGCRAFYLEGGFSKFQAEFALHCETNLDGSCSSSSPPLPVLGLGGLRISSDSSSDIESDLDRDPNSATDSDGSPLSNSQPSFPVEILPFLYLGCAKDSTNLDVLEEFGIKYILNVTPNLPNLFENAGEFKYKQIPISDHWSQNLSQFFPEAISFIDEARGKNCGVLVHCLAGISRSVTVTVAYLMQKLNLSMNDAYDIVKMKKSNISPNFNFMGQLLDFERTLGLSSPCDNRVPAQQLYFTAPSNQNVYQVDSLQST
Assay [4] addresses T1, Dual specificity protein phosphatase 3. Description: VHR1 phosphatase inhibitors, primary screen, biochemical, absorbance, uHTS (AID 1654).
Assay [5] deals with T2, Calpain-2 catalytic subunit (Sus scrofa, UniProt P43367).
T2 sequence (P43367 whole entry): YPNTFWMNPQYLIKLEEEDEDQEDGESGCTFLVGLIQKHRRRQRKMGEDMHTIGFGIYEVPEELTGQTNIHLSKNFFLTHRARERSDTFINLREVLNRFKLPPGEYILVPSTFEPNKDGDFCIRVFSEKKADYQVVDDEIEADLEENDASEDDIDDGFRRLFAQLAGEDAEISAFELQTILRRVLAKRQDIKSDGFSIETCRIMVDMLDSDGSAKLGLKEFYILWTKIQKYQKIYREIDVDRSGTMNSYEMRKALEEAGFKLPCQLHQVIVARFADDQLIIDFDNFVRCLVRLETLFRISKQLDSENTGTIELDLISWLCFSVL
As to the kind of experiment: pig calpain II inhibitor potency, dose response, biochemical, fluorogenic peptide substrate (AID 1420). The class given is functional.

The target in assay [6] is T3, Small ubiquitin-related modifier 1 (Homo sapiens, UniProt P63165). As to the kind of experiment: inhibitors of SUMO1 partner interactions, dose response, biochemical, FRET (AID 624383). The class given is functional. To be noted: read-out: IC50_Mean.
T3 sequence (P63165 whole entry): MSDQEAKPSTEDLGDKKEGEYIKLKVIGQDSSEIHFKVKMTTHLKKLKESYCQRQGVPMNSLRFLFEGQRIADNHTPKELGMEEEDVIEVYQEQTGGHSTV
Assay [7] has as its target Eukaryotic translation initiation factor 4E (Mus musculus, UniProt P63073). Description: eIF4E–eIF4G protein interaction inhibitors, dose response, biochemical, TR-FRET (AID 855).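 Note: potency for disrupting eIF4E binding to eIF4GI seen as loss of FRET.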 The format is functional. A general note: In TR-FRET formats the signal depends on donor and acceptor labels being close together.
Assay [8] concerns the target T3, Small ubiquitin-related modifier 1. As to the kind of experiment: inhibitors of SUMO1 peptide binding, dose response, biochemical, fluorescence polarization, uHTS hits (AID 624382). To be noted: read-out: IC50_Mean. The class given is functional. On the technique in general: Fluorescence polarisation rises when a labelled molecule tumbles more slowly, as on binding a larger partner.

Assay [9] can be described thus: Luminescence Cell-Based Dose Response HTS to Identify Inhibitors of 5'UTR Stem-Loop Driven Prion Protein mRNA Translation in H4 Neuroglioblastoma Cells. [Related pubchem assays: 1827 (Project Summary), 1813 (Primary HTS)]. The format is functional.
A further assay concerns the target Tumor necrosis factor (Homo sapiens, UniProt P01375). Description: TNFa-triggered NF-kB activation inhibitors, SAR follow-up, cell-based, revised (AID 2337). The format is functional.
Assay [10] can be described thus: inhibitors of SNCA 5'UTR-driven reporter translation, confirmation, H4 neuroglioma cells, luminescence (AID 1988). The class given is functional, cell-based.
A further assay concerns HEK293. Description: cells. To be noted: Homo sapiens.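 Note: cells exposed to compound for 14 hours overnight before viability readout.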
The nature of assay [11]: inhibitors of firefly luciferase expression or activity, dose response, H4 neuroglioma cells, luminescence (AID 1990). The class given is functional, cell-based.
The target of assay [12] is Nucleotide-binding oligomerization domain-containing protein 1 (Homo sapiens, UniProt Q9Y239). As to the kind of experiment: NOD1 signaling inhibitors, SAR follow-up, revised (AID 2333). The class given is functional.
Sequence of Nucleotide-binding oligomerization domain-containing protein 1 (Q9Y239 whole entry, the tested form may be a part): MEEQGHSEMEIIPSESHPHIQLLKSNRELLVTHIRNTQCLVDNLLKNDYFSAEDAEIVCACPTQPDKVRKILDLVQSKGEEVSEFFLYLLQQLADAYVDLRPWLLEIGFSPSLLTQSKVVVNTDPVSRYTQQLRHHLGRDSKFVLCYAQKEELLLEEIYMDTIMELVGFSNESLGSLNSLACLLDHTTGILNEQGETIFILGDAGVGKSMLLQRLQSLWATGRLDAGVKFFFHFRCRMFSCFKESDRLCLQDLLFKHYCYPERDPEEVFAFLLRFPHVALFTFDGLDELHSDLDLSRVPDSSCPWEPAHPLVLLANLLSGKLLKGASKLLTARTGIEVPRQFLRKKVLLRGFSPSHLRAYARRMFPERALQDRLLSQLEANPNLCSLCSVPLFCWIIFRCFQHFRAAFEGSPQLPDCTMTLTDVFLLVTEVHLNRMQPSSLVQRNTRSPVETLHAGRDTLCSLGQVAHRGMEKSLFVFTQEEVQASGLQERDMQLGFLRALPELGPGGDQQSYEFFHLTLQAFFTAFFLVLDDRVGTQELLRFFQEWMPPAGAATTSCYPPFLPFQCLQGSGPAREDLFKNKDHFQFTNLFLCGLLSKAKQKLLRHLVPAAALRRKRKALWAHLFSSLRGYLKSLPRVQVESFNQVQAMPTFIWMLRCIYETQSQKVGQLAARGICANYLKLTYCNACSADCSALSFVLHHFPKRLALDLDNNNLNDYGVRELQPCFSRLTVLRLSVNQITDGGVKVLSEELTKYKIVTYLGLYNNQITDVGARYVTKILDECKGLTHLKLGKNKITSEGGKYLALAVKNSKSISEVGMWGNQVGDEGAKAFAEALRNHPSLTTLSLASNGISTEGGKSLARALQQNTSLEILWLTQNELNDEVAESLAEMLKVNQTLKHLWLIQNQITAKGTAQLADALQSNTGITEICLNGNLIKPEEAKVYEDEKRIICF
Assay [13] has as its target Sphingosine 1-phosphate receptor 4 (Homo sapiens, UniProt O95977). As to the kind of experiment: Fluorescence dose response cell-based high throughput screening assay for agonists of the Sphingosine 1-Phosphate Receptor 4 (S1P4). [Related pubchem assays: 1509 (Primary screen.), 1523 (Confirmation screen in triplicates.)]. The format is functional.
For assay [14], the target named is Sphingosine 1-phosphate receptor 1 (Homo sapiens, UniProt P21453). Description: Fluorescence-based counterscreen assay for S1P4 agonists: Cell-based dose response high throughput screening assay to identify agonists of the Sphingosine 1-Phosphate Receptor 1 (S1P1). [Related pubchem assays (depositor defined):AID1509, AID1523, AID1801, AID463107, AID463118, AID463119, AID463122, AID463123, AID463129, AID463225, AID504400, AID504460]. The class given is functional.

Assay [15] addresses T4, G-protein coupled receptor 35 (Homo sapiens, UniProt Q9HC97). Description: SAR analysis of Agonists of the GPR35 Receptor using an Image-Based Assay - Set 2. [Related pubchem assays (depositor defined):AID2013, AID2026]. The format is functional.
Assay [16] addresses T5, Cannabinoid receptor 2 (Homo sapiens, UniProt P34972). Description: SAR analysis of agonists of the Cannabinoid Receptor 2 using an Image-Based Assay. [Related pubchem assays (depositor defined):AID2013, AID2026]. The class given is functional.
The target of assay [17] is T5, Cannabinoid receptor 2. Description: SAR analysis of antagonists of the Cannabinoid Receptor 2 using an Image-Based Assay. [Related pubchem assays (depositor defined):AID2013, AID2026]. The class given is functional.
In assay [18] the target is T6, G-protein coupled receptor 55 (Homo sapiens, UniProt Q9Y2T6). Description: GPR55 antagonist potency of analogs, SAR follow-up, imaging, U2OS, beta-arrestin-GFP, LPI agonist, set 2 (AID 2820). The format is functional.
T6 sequence (Q9Y2T6 whole entry): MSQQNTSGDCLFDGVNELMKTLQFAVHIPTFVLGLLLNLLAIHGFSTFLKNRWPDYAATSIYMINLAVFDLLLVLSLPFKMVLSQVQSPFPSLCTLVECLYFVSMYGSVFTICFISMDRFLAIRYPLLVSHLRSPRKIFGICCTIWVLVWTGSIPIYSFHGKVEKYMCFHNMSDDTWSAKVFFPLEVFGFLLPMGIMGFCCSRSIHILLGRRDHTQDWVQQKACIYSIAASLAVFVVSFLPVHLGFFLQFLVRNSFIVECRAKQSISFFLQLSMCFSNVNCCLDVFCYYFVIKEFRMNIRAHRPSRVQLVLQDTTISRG
Assay [19] deals with T7, Cannabinoid receptor 1 (Homo sapiens, UniProt P21554). As to the kind of experiment: SAR analysis of antagonists of the Cannabinoid Receptor 1 using an Image-Based Assay - Set 2. [Related pubchem assays (depositor defined):AID2013, AID2026]. The class given is functional.
T7 sequence (P21554 whole entry): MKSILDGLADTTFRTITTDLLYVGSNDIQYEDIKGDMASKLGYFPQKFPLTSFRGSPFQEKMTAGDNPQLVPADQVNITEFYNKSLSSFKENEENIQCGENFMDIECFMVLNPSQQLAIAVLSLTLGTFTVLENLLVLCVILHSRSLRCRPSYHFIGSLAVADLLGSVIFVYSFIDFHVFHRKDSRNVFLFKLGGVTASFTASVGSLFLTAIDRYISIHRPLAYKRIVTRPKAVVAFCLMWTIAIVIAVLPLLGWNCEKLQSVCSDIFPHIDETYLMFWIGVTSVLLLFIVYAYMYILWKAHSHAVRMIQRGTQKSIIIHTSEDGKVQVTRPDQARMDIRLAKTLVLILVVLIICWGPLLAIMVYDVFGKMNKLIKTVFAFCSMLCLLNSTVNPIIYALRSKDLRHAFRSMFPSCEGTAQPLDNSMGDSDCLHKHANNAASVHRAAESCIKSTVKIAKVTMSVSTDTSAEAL
The target of assay [20] is T8, Short transient receptor potential channel 4 (Mus musculus, UniProt Q9QUQ5).
T8 sequence (Q9QUQ5 whole entry): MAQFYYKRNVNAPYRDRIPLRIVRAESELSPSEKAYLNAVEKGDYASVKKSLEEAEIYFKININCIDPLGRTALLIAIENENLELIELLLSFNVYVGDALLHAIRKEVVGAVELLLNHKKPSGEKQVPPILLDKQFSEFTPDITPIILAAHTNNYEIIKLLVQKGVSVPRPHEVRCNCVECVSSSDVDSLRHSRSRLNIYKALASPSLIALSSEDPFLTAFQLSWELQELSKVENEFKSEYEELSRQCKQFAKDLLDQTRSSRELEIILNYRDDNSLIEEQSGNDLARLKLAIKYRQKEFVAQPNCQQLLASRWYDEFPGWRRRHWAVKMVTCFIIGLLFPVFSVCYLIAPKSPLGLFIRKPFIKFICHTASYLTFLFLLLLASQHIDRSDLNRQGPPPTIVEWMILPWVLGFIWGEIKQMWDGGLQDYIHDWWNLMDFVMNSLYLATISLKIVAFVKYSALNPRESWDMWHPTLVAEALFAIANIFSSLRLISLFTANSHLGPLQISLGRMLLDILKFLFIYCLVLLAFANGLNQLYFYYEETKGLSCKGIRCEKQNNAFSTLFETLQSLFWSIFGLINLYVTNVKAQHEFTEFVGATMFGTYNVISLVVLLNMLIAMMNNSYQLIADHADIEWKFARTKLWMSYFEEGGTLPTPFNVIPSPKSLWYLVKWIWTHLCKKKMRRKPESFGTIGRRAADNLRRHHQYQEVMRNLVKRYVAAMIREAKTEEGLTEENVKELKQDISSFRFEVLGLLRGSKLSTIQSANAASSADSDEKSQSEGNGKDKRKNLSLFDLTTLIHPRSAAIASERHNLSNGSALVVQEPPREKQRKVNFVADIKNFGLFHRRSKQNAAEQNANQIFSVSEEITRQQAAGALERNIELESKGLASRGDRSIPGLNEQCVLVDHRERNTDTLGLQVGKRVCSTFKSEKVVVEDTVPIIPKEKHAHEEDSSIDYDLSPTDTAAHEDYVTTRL
Description: mouse TRPC4 channel inhibitors, dose response, cell-based, HEK293 TRPC4/mu-opioid, Fluo-4 calcium (AID 434942).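 Note: potency of inhibitors blocking the TRPC4 calcium response.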 The class given is functional.

For assay [21], the target named is T4, G-protein coupled receptor 35. As to the kind of experiment: SAR analysis of Antagonists of the GPR35 Receptor using an Image-Based Assay - Set 3. [Related pubchem assays (depositor defined):AID2013, AID2026]. The format is functional.
Assay [22] addresses T6, G-protein coupled receptor 55. As to the kind of experiment: GPR55 antagonists blocking LPI-driven arrestin recruitment, primary screen, imaging, U2OS, beta-arrestin-GFP, LPI agonist (AID 2013).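 Note: antagonist potency measured as reduced agonist-driven arrestin aggregation.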 The format is functional.
For assay [23], the target named is T7, Cannabinoid receptor 1. As to the kind of experiment: SAR analysis of agonists of the Cannabinoid Receptor 1 using an Image-Based Assay - Set 2. [Related pubchem assays (depositor defined):AID2013, AID2026]. The format is functional.
In assay [24] the target is T9, Kappa-type opioid receptor (Homo sapiens, UniProt P41145). As to the kind of experiment: KOR agonist analogs, imaging readout, SAR follow-up, image-based (AID 2359). The class given is functional.
T9 sequence (P41145 whole entry): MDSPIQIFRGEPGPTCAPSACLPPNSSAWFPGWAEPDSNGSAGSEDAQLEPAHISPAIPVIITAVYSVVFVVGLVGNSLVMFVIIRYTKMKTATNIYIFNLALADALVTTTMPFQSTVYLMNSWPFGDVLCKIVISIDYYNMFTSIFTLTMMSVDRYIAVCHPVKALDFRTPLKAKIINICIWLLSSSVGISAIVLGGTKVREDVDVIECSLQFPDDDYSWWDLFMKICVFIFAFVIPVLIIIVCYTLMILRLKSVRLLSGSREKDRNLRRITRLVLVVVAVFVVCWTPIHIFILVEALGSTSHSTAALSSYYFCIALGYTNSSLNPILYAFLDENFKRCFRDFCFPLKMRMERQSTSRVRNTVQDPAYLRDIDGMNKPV
Assay [25] concerns the target T10, Delta-type opioid receptor (Homo sapiens, UniProt P41143). As to the kind of experiment: DOR antagonists, SAR follow-up, image-based (AID 2357). The class given is functional.
The target of assay [26] is T9, Kappa-type opioid receptor. Description: KOR antagonists by imaging, SAR follow-up, image-based (AID 2348). The class given is functional.
Assay [27] has as its target T11, Mu-type opioid receptor (Homo sapiens, UniProt P35372). As to the kind of experiment: MOR agonists by imaging, SAR follow-up, image-based (AID 2352). The format is functional.
The target of assay [28] is T11, Mu-type opioid receptor. Description: MOR antagonists, SAR follow-up, image-based (AID 2420).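 Note: compounds added before stimulation of receptor with agonist DAMGO.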 The format is functional.
Assay [29] concerns the target T10, Delta-type opioid receptor. Description: DOR agonists, SAR follow-up, image-based (AID 2370). The class given is functional.
Assay [30] has as its target T9, Kappa-type opioid receptor. As to the kind of experiment: SAR analysis of small molecule agonists of the kappa opioid receptor via a luminescent beta-arrestin assay. [Related pubchem assays (depositor defined):AID1777, AID1786, AID1966, AID2133, AID2136, AID2348, AID2352, AID2357, AID2359, AID2370, AID2420, AID2478, AID2491, AID2492, AID2493, AID2497, AID2498, AID2500, AID449737, AID488822, AID488842]. The class given is functional.

Assay [31] deals with T9, Kappa-type opioid receptor. As to the kind of experiment: SAR analysis of small molecule agonists of the kappa opioid receptor via a luminescent beta-arrestin assay - Set 3. [Related pubchem assays (depositor defined):AID1777, AID1785, AID1786, AID1966, AID2133, AID2136, AID2284, AID2500]. The format is functional.

The structures appear in SMILES notation. The source made the active and inactive calls.

T11 sequence (P35372 whole entry): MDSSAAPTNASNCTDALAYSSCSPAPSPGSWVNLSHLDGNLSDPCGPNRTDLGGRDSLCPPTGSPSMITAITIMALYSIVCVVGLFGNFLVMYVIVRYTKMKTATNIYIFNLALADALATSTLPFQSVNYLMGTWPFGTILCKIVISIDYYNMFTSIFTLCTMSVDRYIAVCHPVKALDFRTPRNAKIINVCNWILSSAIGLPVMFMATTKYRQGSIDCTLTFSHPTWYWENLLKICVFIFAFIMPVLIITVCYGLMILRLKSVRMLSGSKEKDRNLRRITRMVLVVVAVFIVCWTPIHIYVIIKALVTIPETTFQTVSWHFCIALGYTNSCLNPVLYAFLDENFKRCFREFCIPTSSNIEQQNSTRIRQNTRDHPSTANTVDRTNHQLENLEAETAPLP
T5 sequence (P34972 whole entry): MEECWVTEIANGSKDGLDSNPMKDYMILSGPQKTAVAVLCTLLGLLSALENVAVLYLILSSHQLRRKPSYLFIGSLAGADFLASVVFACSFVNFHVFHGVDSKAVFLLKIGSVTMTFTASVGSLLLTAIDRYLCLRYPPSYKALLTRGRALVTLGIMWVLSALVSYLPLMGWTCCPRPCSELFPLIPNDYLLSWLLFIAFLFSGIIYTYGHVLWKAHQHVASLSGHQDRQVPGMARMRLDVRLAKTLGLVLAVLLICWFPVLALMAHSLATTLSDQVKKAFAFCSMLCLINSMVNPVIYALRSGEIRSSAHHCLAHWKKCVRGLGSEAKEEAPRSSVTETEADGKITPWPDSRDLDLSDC
T10 sequence (P41143 whole entry): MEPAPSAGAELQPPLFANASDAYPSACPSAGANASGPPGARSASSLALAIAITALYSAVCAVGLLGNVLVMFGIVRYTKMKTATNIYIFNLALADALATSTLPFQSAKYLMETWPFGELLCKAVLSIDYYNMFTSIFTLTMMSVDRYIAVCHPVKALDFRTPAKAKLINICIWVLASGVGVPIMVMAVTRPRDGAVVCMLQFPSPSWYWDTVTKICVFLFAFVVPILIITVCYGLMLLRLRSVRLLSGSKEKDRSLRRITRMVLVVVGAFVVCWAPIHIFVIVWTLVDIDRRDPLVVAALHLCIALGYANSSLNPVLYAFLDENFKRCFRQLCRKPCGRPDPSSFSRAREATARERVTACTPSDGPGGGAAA
T4 sequence (Q9HC97 whole entry): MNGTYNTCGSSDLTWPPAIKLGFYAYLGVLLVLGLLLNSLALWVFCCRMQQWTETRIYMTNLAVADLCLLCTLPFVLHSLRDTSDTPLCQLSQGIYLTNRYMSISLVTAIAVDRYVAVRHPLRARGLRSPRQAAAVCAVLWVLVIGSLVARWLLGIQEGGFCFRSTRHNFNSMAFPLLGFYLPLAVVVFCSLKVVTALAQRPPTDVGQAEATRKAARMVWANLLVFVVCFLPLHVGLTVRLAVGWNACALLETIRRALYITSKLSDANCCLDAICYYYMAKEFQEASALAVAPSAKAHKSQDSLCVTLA
Sequence of Tumor necrosis factor (P01375 whole entry): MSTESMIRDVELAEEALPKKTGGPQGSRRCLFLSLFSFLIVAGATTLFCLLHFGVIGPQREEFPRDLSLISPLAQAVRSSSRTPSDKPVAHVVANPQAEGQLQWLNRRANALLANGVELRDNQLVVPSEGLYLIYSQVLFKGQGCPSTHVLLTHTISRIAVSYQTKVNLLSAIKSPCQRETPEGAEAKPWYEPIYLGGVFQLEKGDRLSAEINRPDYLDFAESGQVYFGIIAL
Sequence of Sphingosine 1-phosphate receptor 4 (O95977 whole entry): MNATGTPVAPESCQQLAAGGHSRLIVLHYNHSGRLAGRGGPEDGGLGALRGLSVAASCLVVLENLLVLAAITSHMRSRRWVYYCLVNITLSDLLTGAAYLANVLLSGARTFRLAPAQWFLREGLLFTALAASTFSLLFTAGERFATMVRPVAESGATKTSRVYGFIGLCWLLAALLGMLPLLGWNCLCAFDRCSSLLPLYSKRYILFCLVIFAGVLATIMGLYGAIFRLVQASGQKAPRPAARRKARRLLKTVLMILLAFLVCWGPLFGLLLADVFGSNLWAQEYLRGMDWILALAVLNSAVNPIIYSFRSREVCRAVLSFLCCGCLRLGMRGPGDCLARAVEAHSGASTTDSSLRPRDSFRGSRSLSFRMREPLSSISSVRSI

Regarding `O=C(CSc1nc(-c2ccc(F)cc2)nc2c1Cc1ccccc1O2)Nc1ccc(C(=O)O)cc1`, the IC50 in assay [1] was 23 µM (active); in assay [2] it was 4.04 µM (active); in assay [3], 10.1 µM (active); in assay [4], 5.02 µM (active); in [5], > 50 µM (not active); in assay [6], 3.36 µM (active). Moreover, the results for the IC50 in [7] and in assay [8] were 50 µM (inactive) and > 66.6 µM (inactive), respectively.

`COCCn1c(C)cc(C(=O)COC(=O)c2cccc(O)c2)c1C`: the concentration giving a half-maximal response (EC50) in [9] was 0.121 µM (active); in assay [10], 0.137 µM (active); in [11], < 0.1 µM (active). For the same compound, the IC50 was 704 nM (active) on Tumor necrosis factor, > 20 µM (inactive) in the assay with HEK293 and 2.5 µM (active) in [12].

For the compound `N#Cc1cc2c(=O)n3ccccc3nc2n(-c2ccccc2Cl)c1=O`, the EC50 in assay [9] is > 120 µM (not active); in assay [10], 11 µM (active); in [11] it was > 120 µM (not active); in assay [13], 2.88 µM (active); in [14], 10.4 µM (inactive).

For the compound `Cc1[nH]nc(-c2ccc(O)cc2O)c1-c1ccc(Cl)cc1`, the EC50 in assay [15] was > 32 µM (inactive); at Cannabinoid receptor 2 [16] it was > 32 µM (inactive); in [20] it was 5.31 µM (active); at Cannabinoid receptor 1 [23], > 32 µM (inactive). Further, the IC50 on Cannabinoid receptor 2 [17] was > 32 µM (inactive); in assay [18], 2.05 µM (active); at Cannabinoid receptor 1 [19] it was > 32 µM (inactive); in [21], > 32 µM (inactive); in [22] it was 3.44 µM (active).

In the case of `O=C(c1ccccn1)N(Cc1ccco1)C1(C(=O)Nc2ccc(Br)cc2)CCCCC1`, the EC50 in assay [24] is 98.3 nM (active); at Mu-type opioid receptor [27], > 32 µM (inactive); in assay [29], > 32 µM (inactive); in assay [30], 423 nM (active). The IC50 (in assay [25]; in assay [26]; on Mu-type opioid receptor [28]) was > 32 µM (inactive) in each case.

Regarding `Clc1ccc(CSc2nnc(-c3ccncc3)n2Cc2ccco2)cc1Cl`, the EC50 in assay [31] was > 20 µM (inactive).
